From PubChem BioAssay AID2060619 (Molecular Pharmacology Branch, DTP, NCI, 2025)

Tested on: 323965-272-R-J2-PDC complex spheroid viability
Assay: Anticancer human tumor 323965-272-R-J2-PDC patient-derived pancreatic carcinoma cell line growth inhibition [CLK]
Conditions: for IC50: curve of first compound; for viability, T/C: stronger effect = lower value
How it was run: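 Multi-cell-type spheroids combined patient-derived tumor cells with HUVEC endothelial cells and human mesenchymal stem cells. Paired agents were dosed in half-log steps down from about clinical Cmax, or from 10 microM where Cmax was unknown.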
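Also: spheroids exposed to agents for seven days before readout.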
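For viability, T/C in this document: percent of DMSO vehicle control wells so 100% = untreated growth.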

`NC(=O)C(=Cn1cnc(-c2cc(C(F)(F)F)cc(C(F)(F)F)c2)n1)c1cncnc1` + CNC(=O)c1ccc(Nc2nc(OC3CCCC3)c3c(-c4ccc5nc(C)oc5c4)c[nH]c3n2)c(OC)c1 gave an IC50 (second compound 0.0316 µM) of 1.07 µM, an IC50 (second compound 0.1 µM) of 1.27 µM and an IC50 (second compound 0.316 µM) of 0.655 µM. The IC50 (second compound 1 µM) was 0.0539 µM, the IC50 (second compound 3.16 µM) was < 0.00949 µM and the IC50 (second compound 10 µM) was < 0.00949 µM. The viability, T/C (second compound 0.0316 µM, first compound 0.00949 µM) was 112%, the viability, T/C (second compound 0.0316 µM, first compound 0.03 µM) was 88.8% and the viability, T/C (second compound 0.0316 µM, first compound 0.0949 µM) was 75.1%. For the same molecule, the viability, T/C (second compound 0.0316 µM, first compound 0.3 µM) was 66.7%, the viability, T/C (second compound 0.0316 µM, first compound 0.949 µM) was 62.1% and the viability, T/C (second compound 0.0316 µM, first compound 3 µM) was 30.9%. For the same molecule, the viability, T/C (second compound 0.1 µM, first compound 0.00949 µM) was 86.6%, the viability, T/C (second compound 0.1 µM, first compound 0.03 µM) was 89% and the viability, T/C (second compound 0.1 µM, first compound 0.0949 µM) was 70.9%. For the same molecule, the viability, T/C (second compound 0.1 µM, first compound 0.3 µM) was 68.6%, the viability, T/C (second compound 0.1 µM, first compound 0.949 µM) was 59.6% and the viability, T/C (second compound 0.1 µM, first compound 3 µM) was 32.5%. It also gave a viability, T/C (second compound 0.316 µM, first compound 0.00949 µM) of 65.8%, a viability, T/C (second compound 0.316 µM, first compound 0.03 µM) of 67.9% and a viability, T/C (second compound 0.316 µM, first compound 0.0949 µM) of 64.7%. It also gave a viability, T/C (second compound 0.316 µM, first compound 0.3 µM) of 59.9%, a viability, T/C (second compound 0.316 µM, first compound 0.949 µM) of 45.3% and a viability, T/C (second compound 0.316 µM, first compound 3 µM) of 25.5%. For the same molecule, the viability, T/C (second compound 1 µM, first compound 0.00949 µM) was 50.9%, the viability, T/C (second compound 1 µM, first compound 0.03 µM) was 56.4% and the viability, T/C (second compound 1 µM, first compound 0.0949 µM) was 45.1%. It also gave a viability, T/C (second compound 1 µM, first compound 0.3 µM) of 42.8%, a viability, T/C (second compound 1 µM, first compound 0.949 µM) of 30.6% and a viability, T/C (second compound 1 µM, first compound 3 µM) of 13.1%. It also gave a viability, T/C (second compound 3.16 µM, first compound 0.00949 µM) of 46%, a viability, T/C (second compound 3.16 µM, first compound 0.03 µM) of 51.4% and a viability, T/C (second compound 3.16 µM, first compound 0.0949 µM) of 37.1%. For the same molecule, the viability, T/C (second compound 3.16 µM, first compound 0.3 µM) was 38.9%, the viability, T/C (second compound 3.16 µM, first compound 0.949 µM) was 33% and the viability, T/C (second compound 3.16 µM, first compound 3 µM) was 16.6%. It also gave a viability, T/C (second compound 10 µM, first compound 0.00949 µM) of 45.1%, a viability, T/C (second compound 10 µM, first compound 0.03 µM) of 48.4% and a viability, T/C (second compound 10 µM, first compound 0.0949 µM) of 47.2%. It also gave a viability, T/C (second compound 10 µM, first compound 0.3 µM) of 39.8%, a viability, T/C (second compound 10 µM, first compound 0.949 µM) of 24.1% and a viability, T/C (second compound 10 µM, first compound 3 µM) of 9.32%.

`CC1COCCN1c1cc(C2(S(C)(=N)=O)CC2)nc(-c2ccnc3[nH]ccc23)n1` (centres undefined) + CN1CCN(c2cc(C(=O)Nc3cc4cc(-c5cnn(C)c5)ccc4cn3)ccn2)CC1 was tested, and the IC50 (second compound 0.0316 µM) was 1.82 µM, the IC50 (second compound 0.1 µM) was 0.701 µM and the IC50 (second compound 0.316 µM) was < 0.0316 µM. For the same molecule, the IC50 (second compound 1 µM) was < 0.0316 µM, the IC50 (second compound 3.16 µM) was < 0.0316 µM and the IC50 (second compound 10 µM) was < 0.0316 µM. The viability, T/C (second compound 0.0316 µM, first compound 0.0316 µM) was 98.2%, the viability, T/C (second compound 0.0316 µM, first compound 0.1 µM) was 103% and the viability, T/C (second compound 0.0316 µM, first compound 0.316 µM) was 79.5%. The viability, T/C (second compound 0.0316 µM, first compound 1 µM) was 65.8%, the viability, T/C (second compound 0.0316 µM, first compound 3.16 µM) was 36.7% and the viability, T/C (second compound 0.0316 µM, first compound 10 µM) was 25.6%. For the same molecule, the viability, T/C (second compound 0.1 µM, first compound 0.0316 µM) was 66.9%, the viability, T/C (second compound 0.1 µM, first compound 0.1 µM) was 77.2% and the viability, T/C (second compound 0.1 µM, first compound 0.316 µM) was 67%. For the same molecule, the viability, T/C (second compound 0.1 µM, first compound 1 µM) was 41.8%, the viability, T/C (second compound 0.1 µM, first compound 3.16 µM) was 31% and the viability, T/C (second compound 0.1 µM, first compound 10 µM) was 23.6%. For the same molecule, the viability, T/C (second compound 0.316 µM, first compound 0.0316 µM) was 24.6%, the viability, T/C (second compound 0.316 µM, first compound 0.1 µM) was 29.2% and the viability, T/C (second compound 0.316 µM, first compound 0.316 µM) was 22.1%. The viability, T/C (second compound 0.316 µM, first compound 1 µM) was 21.4%, the viability, T/C (second compound 0.316 µM, first compound 3.16 µM) was 17.4% and the viability, T/C (second compound 0.316 µM, first compound 10 µM) was 15.1%. It also gave a viability, T/C (second compound 1 µM, first compound 0.0316 µM) of 3.95%, a viability, T/C (second compound 1 µM, first compound 0.1 µM) of 3.37% and a viability, T/C (second compound 1 µM, first compound 0.316 µM) of 3.9%. For the same molecule, the viability, T/C (second compound 1 µM, first compound 1 µM) was 3.84%, the viability, T/C (second compound 1 µM, first compound 3.16 µM) was 2.35% and the viability, T/C (second compound 1 µM, first compound 10 µM) was 2.79%. For the same molecule, the viability, T/C (second compound 3.16 µM, first compound 0.0316 µM) was 4.84%, the viability, T/C (second compound 3.16 µM, first compound 0.1 µM) was 4.43% and the viability, T/C (second compound 3.16 µM, first compound 0.316 µM) was 4.15%. The viability, T/C (second compound 3.16 µM, first compound 1 µM) was 3.73%, the viability, T/C (second compound 3.16 µM, first compound 3.16 µM) was 3.53% and the viability, T/C (second compound 3.16 µM, first compound 10 µM) was 4.26%. For the same molecule, the viability, T/C (second compound 10 µM, first compound 0.0316 µM) was 4.2%, the viability, T/C (second compound 10 µM, first compound 0.1 µM) was 3.8% and the viability, T/C (second compound 10 µM, first compound 0.316 µM) was 4.37%. For the same molecule, the viability, T/C (second compound 10 µM, first compound 1 µM) was 3.26%, the viability, T/C (second compound 10 µM, first compound 3.16 µM) was 4.39% and the viability, T/C (second compound 10 µM, first compound 10 µM) was 2.79%.
